Results taken from patent publication US20120225949A1, “COMPOSITIONS AND METHODS FOR TREATING BIPOLAR DISORDER” (priority 2009, published 2012).

Tests used:
[1] = cited from earlier work
[2] = system: PCP site of the NMDA receptor; settings: (S)- versus (R)-ketamine; cited from earlier work
[3] = Subject's earlier response to sedative/analgesic drugs (medical history); settings: child, around adenoid removal
[4] = system: Childhood-Onset Bipolar Disorder With FOH; test: Ketamine treatment of childhood-onset bipolar disorder with FOH (single-subject case report); type: in vivo, human; settings: 2 intranasal puffs of ketamine
Excerpt: Subject is a child referred by their parents for psychiatric care to address their intense and often violent rages.
Subject has had episodic rages that have escalated in frequency and intensity since their adoption at 18 months. They have always experienced extreme separation anxiety but their aggression has shifted from themself toward their parents since starting school. The abuse towards their parents has included hitting, kicking, biting, and propelling objects. Parents came for consultation for fear that Subject will become more dangerous as they age.
Subject is currently on seroquel—225 mg (50 mg time release mornings, 25 mg afternoon, 150 mg time release evenings), lithium 600 mg (300 mg mornings and evenings), and 2 intranasal puffs of ketamine.

[5] = cited from earlier work; remark: listed apart in the source

CN[C@@]1(c2ccccc2Cl)CCCCC1=O [(R)-ketamine]
hallucinogenic effect ([1]; in vivo): hallucinogenic

CN[C@]1(c2ccccc2Cl)CCCCC1=O [(S)-ketamine]
induction of drowsiness ([1]; comparison of enantiomers): more strongly than the (R) enantiomer | affinity for the PCP site of the NMDA receptor relative to (R)-ketamine [2]: about four

Cc1ncc2n1-c1ccc(Cl)cc1C(c1ccccc1F)=NC2 [Versid]
response of subject to drug (medical history) [3]: extreme hyperactivity instead of relaxation

CNC1(c2ccccc2Cl)CCCCC1=O (stereo not drawn) [ketamine, [(2-2-chlorophenyl)-2-(methylamino)-cyclohexanone]]
coordination [4]: improved coordination | coping with transitions [4]: able to cope with transitions without the aid of transitional rituals | dependence on transitional objects [4]: decreased to the rare occasion | hallucinations [4]: complete remission | hoarding behavior [4]: ceased | motion sickness [4]: no more motion sickness | night sweats [4]: no longer complains of night sweats | physical well-being [4]: much improvement | sleep [4]: improved greatly | speech [4]: improved with much greater regularity in coherence, tempo, volume, and clarity | thirst on awakening [4]: no longer awakens extremely thirsty | delusions ([4]; except the last few days of the ketamine cycle): subsided | aggression ([4]; returns on occasion the few days prior to next administration): nearly disappeared | dreams ([4]; subject's report): “good dreams” have replaced their “bad dreams.” | overall response after the use of ketamine ([4]; child, with seroquel 225 mg and lithium 600 mg): quite notable changes in body temperature, speech, levels of fear, sleep, attention, aggression, and psychosis/delusions | dose at which mild adverse effects (dysphoria and/or hallucinations, "ketamine dreams") can occur ([5]; dose of ketamine): greater than 50 mg | dose usually required for mild adverse effects (dysphoria and/or hallucinations) ([5]; total dose intranasally): greater than 100 mg
